Source: JP2009512709A, “速効型インスリンの経鼻投与” (エムディーアールエヌエー，インコーポレイテッド, priority 2005, dated 2007)

Experiments:
[1] = Rabbit pharmacokinetics (serum insulin) after IN, SC, IV or oral insulin; format: in vivo, ニュージーランド白色ラビット; settings: PK study 2
[2] = system: EpiAirway; test: Insulin tissue permeation across EpiAirway, ELISA; format: in vitro ADME; settings: in vitro study 3; Tween-containing formulations
[3] = system: 黄色ブドウ球菌、クロカビ、緑膿菌; test: Antimicrobial effectiveness test (AET), USP and EP requirements; settings: for AET result against EP requirements / AET result against USP requirements: insulin nasal spray formulations (placebo or active); for Preservative / antimicrobial effectiveness: in insulin nasal spray formulations, neutral pH
[4] = Compatibility of preservative with insulin (precipitation); format: physicochemical; settings: presence in formulation caused insulin precipitation
[5] = system: グルコース; test: Human PD clinical study, glucose by glucometer; format: in vivo, ヒト; settings: intranasal administration

Molecule: CCCCCCCCCC(=O)OC[C@H](COP(=O)([O-])OCC[N+](C)(C)C)OC(=O)CCCCCCCCC [DDPC, L−α−ホスファチジルコリンジデカノイル]
- Effect of removing DDPC on BA(%), Cmax and AUClast [1]: 減少した
- Effect of removing the excipient from the formulation on insulin permeation [2]: 影響を有しなかった

Molecule: O=C([O-])CN(CCN(CC(=O)[O-])CC(=O)O)CC(=O)O.[Na+].[Na+] [EDTA, エデト酸二ナトリウム]
- AET result against EP requirements [3]: 有効であるとは思われなかった
- AET result against USP requirements [3]: 有効であるとは思われなかった

Molecule: Cc1cccc(O)c1 [m−クレゾール]
- Preservative / antimicrobial effectiveness [3]: 有効な防腐剤ではなかった

Molecule: CC(C)CC(N)B(O)O (stereo not drawn) [ベンジルアルコール]
- Preservative / antimicrobial effectiveness [3]: 有効な防腐剤ではなかった and 無効

Molecule: CC(C)CC(N)B(O)O (stereo not drawn) [塩化ベンズアルコニウム]
- Compatibility with insulin [4]: 不適合性
- Preservative / antimicrobial effectiveness [3]: 最良の抗菌性能
- AET result against EP requirements [3]: 優れた防腐剤
- AET result against USP requirements [3]: 優れた防腐剤

Molecule: CC(C)CC(N)B(O)O (stereo not drawn) [安息香酸ナトリウム]
- Preservative / antimicrobial effectiveness [3]: 有効な防腐剤ではなかった

Molecule: インスリン: recombinant native-sequence human insulin
- Reduction of glucose (%) in patients [5]: 有効
